The test system of one data set is 2019-nCoV (COVID-19). Briefly: Inhibitory effect against 2019-nCoV (COVID-19) viruses in Huh 7 cell model, viral RNA by qRT-PCR. It counts as cell-based. The following applies: for SI: CC50/EC50, Huh 7 cells; for EC50: viral RNA copies in supernatant, 48 h. As for the experimental part: The antiviral activity assay was performed on a Huh 7 cell model. Three replicate wells were set for each assay and the assay was repeated three times in total.
1) In each well of a 24-well cell culture plate, 5×10^4 Huh 7 cells were inoculated. Under the culture conditions of 37° C. and 5% CO2, when the confluence reached 60%, 200 μL of 2019-nCoV (COVID-19) virus solution diluted with a DMEM medium containing 2% FBS were added to each well respectively according to the multiplicity of infection MOI of 0.005. After adsorption for 1 h in a 5% CO2 incubator at 37° C., the virus solution was discarded. The positive control drug and the Azvudine amine phosphate prodrug CL-236 were subjected to 2-fold dilution with a DMEM medium containing 2% FBS from the maximum non-toxic concentration, and added to the cell plate at 500 μL/well. Meanwhile, a control group (drug-free group) was set and the supernatant virus solution was collected at 48 h after infection.
2) RNA quantification of collected viruses by real-time RT-PCR (qRT-PCR):
From the collected supernatant virus solutions, 140 μL were measured separately, and subjected to RNA extraction according to the instruction of the QIAamp viral RNA mini kit. The qRT-PCR detection was carried out using the One Step TB Green PrimeScript PLUS RT-PCR Kit (Perfect Real Time), and the primers were RBD-qF1: 5′-[…]-3′ (SEQ. ID. NO. 1); and RBD-qR1:5′-[…]-3′(SEQ. ID. NO. 2).
The total volume of the reaction system was 20 μL:10 μL of 2× One Step TB Green RT-PCR Buffer 4, 1.2 μL of TaKaRa Ex Taq HS Mix, 0.4 μL of PrimeScript PLUS RTase Mix, 0.8 μL each of RBD-qF1 and RBD-qR1, 0.4 μL of ROX Reference Dye (50×), 2 μL of viral RNA, and 4.4 μL of RNase Free dH2O. The reaction parameters were as follows: reverse transcription at 42° C. for 5 min, pre-denaturation at 95° C. for 10 s, PCR for 40 cycles including denaturation at 95° C. for 10 s and annealing and extension at 60° C. for 30 s.
3) The inhibition rates of the drug at the concentrations were calculated. Inhibition rate (%)=1−viral RNA copies in experimental group/viral RNA copies in drug-free group×100%. At the same time, the median effective concentration (EC50) and therapeutic index (TI) of the drug were calculated, therapeutic index (TI)=concentration cytotoxicity 50% (CC50)/median effective concentration (EC50).
On the technique in general: Quantitative PCR measures a nucleic acid by following its amplification.

A further data set in a line: in vitro. Particulars: human.
Data set [1] has as its system novel coronavirus (COVID-19) pneumonia. Briefly: Clinical trial in patients with novel coronavirus (COVID-19) pneumonia. Particulars: for Clinical advantage versus control (nucleic acid clearance rate, course of clearance, cure rate, course of cure): compared with the conventional treatment (Kaletra control).
A further data set deals with AIDS. The following applies: as an anti-AIDS drug; cited from earlier work.
The next data set concerns novel coronaviruses. Briefly: in vitro antiviral activity in MRC-5 cells infected with the novel coronaviruses. Format: cell-based. The following applies: MRC5. An excerpt:
The inventors have determined the in vitro antiviral activity of Compound 1 in MRC-5 cells infected with the novel coronaviruses.

Setting [2] is: Severe acute respiratory syndrome coronavirus 2, Huh 7 cells.
[3] abbreviates: individual patients, 10 per group, Azvudine 5 mg daily oral, Kaletra + arbidol + interferon control.

Each structure is given as a SMILES string. “Also recorded” adds a separate entry of the source.

By inhibition is commonly meant the share of the control response that was lost under treatment. As a reminder, the EC50 is the midpoint of the concentration-response curve. Read a low EC50 as an effect from little substance. With `CC(C)OC(=O)[C@H](C)NP(=O)(OCC1(N=[N+]=[N-])OC(n2ccc(N)nc2=O)C(F)C1O)Oc1ccccc1` (stereo partly shown) [CL-236], in the data set with 2019-nCoV (COVID-19), the SI was 20.7. For the same molecule, the inhibition at 0.1 µM in the data set with 2019-nCoV (COVID-19) (Severe acute respiratory syndrome coronavirus 2, 0.1 uM, Huh 7 cells, MOI 0.005, 48 h after infection, read-out: Virus Inhibition Rate (%)) is 9.38%. Besides, the inhibition at 0.4 µM in the data set with 2019-nCoV (COVID-19) (Severe acute respiratory syndrome coronavirus 2, 0.4 uM, Huh 7 cells, MOI 0.005, 48 h after infection, read-out: Virus Inhibition Rate (%)) came out at 18.8%. Besides, the inhibition at 1.6 µM in the data set with 2019-nCoV (COVID-19) (Severe acute respiratory syndrome coronavirus 2, 1.6 uM, Huh 7 cells, MOI 0.005, 48 h after infection, read-out: Virus Inhibition Rate (%)) turned out to be 37.5%. Moreover, in the data set on 2019-nCoV (COVID-19) (Severe acute respiratory syndrome coronavirus 2, 6.4 uM, Huh 7 cells, MOI 0.005, 48 h after infection, read-out: Virus Inhibition Rate (%)), the inhibition at 6.4 µM was 65.6%. Further, the inhibition at 25.6 µM with 2019-nCoV (COVID-19) (Severe acute respiratory syndrome coronavirus 2, 25.6 uM, Huh 7 cells, MOI 0.005, 48 h after infection, read-out: Virus Inhibition Rate (%)) was determined as 75%. Further, the inhibition at 102.4 µM in the data set on 2019-nCoV (COVID-19) (Severe acute respiratory syndrome coronavirus 2, 102.4 uM, Huh 7 cells, MOI 0.005, 48 h after infection, read-out: Virus Inhibition Rate (%)) stood at 81.2%. Further, the EC50 in the data set with 2019-nCoV (COVID-19) (setting [2]) came out at 3.2 µM. For the same molecule, in “in vitro”, the CC50 came to 66.2 µM.
Regarding `[N-]=[N+]=NC1(CO)OC(n2ccc(N)nc2=O)C(F)C1O` (stereo not shown) [Compound 1, Azvudine], in data set [1], the “Clinical advantage versus control (nucleic acid clearance rate, course of clearance, cure rate, course of cure)” value is on record as “significant clinical therapeutic advantages”. Also, the “Clinical advantage versus control (nucleic acid clearance rate, course of clearance, cure rate, course of cure)” value in data set [1] (listed as compound of formula (1)) is “obvious advantages”. In addition, in data set [1] (human, in vivo), the “Drug-related toxic and side effects during the treatment” value was “no drug-related toxic and side effects were found”. In addition, in data set [1] (setting [3]), the “From inclusion confirmed by nucleic acid test to clearance” value is “Clearance: day 4; also recorded: Clearance: day 2; also recorded: one week; also recorded: Clearance: day 3” and the “From inclusion confirmed by nucleic acid test to discharge” value was “Discharge: day 7; also recorded: Discharge: day 6; also recorded: Discharge: day 8; also recorded: Discharge: day 5”. In data set [1] (of 10 patients in the group), the “Patients discharged within 8 days” value is listed as “seven” and the “Patients turned negative by the nucleic acid test” value turned out to be 10. Moreover, the “Time to turn negative after start of treatment” value in data set [1] (one patient who had failed supportive treatment with Kaletra) is listed as “three days”. In addition, the “Safety in phase II clinical trials” value with AIDS was “good safety”. The molecule also gave an EC50 in the data set with novel coronaviruses of 25 µM.
Consider `CCC(CC)COC(=O)[C@H](C)N[P@](=O)(OC[C@H]1O[C@@](C#N)(c2ccc3c(N)ncnn23)[C@H](O)[C@@H]1O)Oc1ccccc1` [Remdesivir, reference compound], for which the SI with 2019-nCoV (COVID-19) is listed as >30.0. In addition, in the data set with 2019-nCoV (COVID-19) (setting [2]), the EC50 stood at 1.5 µM. For the same molecule, the CC50 in the data set “in vitro” was > 45 µM.

Source of the values: US12667583B2, “Method for preventing or treating a cornavirus infectious disease” (HENAN GENUINE BIOTECH CO., LTD., priority 2020, dated 2026).
